Assays:
barnyardgrass = experiment: Test C preemergence; assay type: in vivo, Echinochloa crus-galli; details: preemergence; for Plant response rating, Barnyardgrass: 125 g ai/ha, scale 0 to 100, 0 = no effect, 100 = complete control
In short: (§1)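 Postemergence values come from plants sprayed at the 1- to 4-leaf stage (2–18 cm) in peat moss–vermiculite medium; preemergence values from seeds treated in a loam–sand blend. Both evaluated visually against controls after 13–15 greenhouse days, scale 0–100.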

velvetleaf [1] = experiment: Test C postemergence; assay type: in vivo, Abutilon theophrasti; details: for Velvetleaf plant response rating / Plant response rating, Velvetleaf: postemergence; for Velvetleaf plant response rating: scale 0 to 100
In short: as §1

wheat = experiment: Test A postemergence; assay type: in vivo, Triticum aestivum
In short: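 Injury readout: eye-scored versus untreated controls, 0 to 100. Exposure period: ~10 days, greenhouse. Application: soil-directed spray over sown seed (pre) or spray on seedlings 2–10 cm tall with one or two leaves (post), compound carried in non-phytotoxic solvent including surfactant.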

morningglory [2] = experiment: Test C postemergence; assay type: in vivo, Ipomoea coccinea; details: for Plant response rating (scale of 0 to 100 where 0 is no effect and 100 is complete control), Morningglory: Postemergence, 31 g ai/ha, visually evaluated after 13 to 15 days; for Morningglory plant response rating / Plant response rating, Morningglory: postemergence; for Morningglory plant response rating: 62 g ai/ha, scale 0 to 100
In short: as §1

soybean = experiment: Test C preemergence; assay type: in vivo, Glycine max; details: preemergence; for Plant response rating, Soybean: 125 g ai/ha, scale 0 to 100, 0 = no effect, 100 = complete control
In short: as §1

morningglory [3] = experiment: Test C preemergence; assay type: in vivo, Ipomoea coccinea; details: preemergence; for Plant response rating, Morningglory: 125 g ai/ha, scale 0 to 100, 0 = no effect, 100 = complete control
In short: as §1

oat, wild = experiment: Test C postemergence; assay type: in vivo, Avena fatua; details: for Plant response rating (scale of 0 to 100 where 0 is no effect and 100 is complete control), Oat, Wild: Postemergence, 31 g ai/ha, visually evaluated after 13 to 15 days; for Oat, Wild plant response rating / Plant response rating, Oat, Wild: postemergence; for Oat, Wild plant response rating: 62 g ai/ha, scale 0 to 100
In short: as §1

velvetleaf [4] = experiment: Test C preemergence; assay type: in vivo, Abutilon theophrasti; details: preemergence; for Plant response rating, Velvetleaf: 125 g ai/ha, scale 0 to 100, 0 = no effect, 100 = complete control
In short: as §1

sedge, umbrella = experiment: Test B flood; assay type: in vivo, Cyperus difformis; details: 250 g ai/ha, visual rating on 0 to 100 scale (0 no effect, 100 complete control), 13 to 15 days
In short: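 Response scored visually, 0–100 relative to controls, 13–15 days after the compound was applied into paddy water; plants were at the 2-leaf stage in pots kept flooded to 3 cm.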

chickweed = experiment: Test C postemergence; assay type: in vivo, Stellaria media; details: for Plant response rating (scale of 0 to 100 where 0 is no effect and 100 is complete control), Chickweed: Postemergence, 31 g ai/ha, visually evaluated after 13 to 15 days; for Chickweed plant response rating / Plant response rating, Chickweed: postemergence; for Chickweed plant response rating: 62 g ai/ha, scale 0 to 100
In short: as §1

lambsquarters = experiment: Test C preemergence; assay type: in vivo, Chenopodium album; details: preemergence; for Plant response rating, Lambsquarters: 125 g ai/ha, scale 0 to 100, 0 = no effect, 100 = complete control
In short: as §1

johnsongrass = experiment: Test C postemergence; assay type: in vivo, Sorghum halepense; details: for Plant response rating (scale of 0 to 100 where 0 is no effect and 100 is complete control), Johnsongrass: Postemergence, 31 g ai/ha, visually evaluated after 13 to 15 days; for Johnsongrass plant response rating / Plant response rating, Johnsongrass: postemergence; for Johnsongrass plant response rating: 62 g ai/ha, scale 0 to 100
In short: as §1

[5] = 62 g ai/ha, scale 0 to 100 (0 no effect, 100 complete control), 13 to 15 days
[6] = 250 g ai/ha, scale 0 to 100, 0 is no effect, 100 is complete control
[7] = 250 g ai/ha, scale 0 to 100 (0 no effect, 100 complete control)
[8] = 125 g ai/ha, scale 0 to 100, 0 no effect, 100 complete control
[9] = Postemergence, 500 g ai/ha, 0 to 100 scale (0 no effect, 100 complete control)
[10] = 31 g ai/ha, visual rating, scale 0 to 100 (0 no effect, 100 complete control), 13 to 15 days

CCCNC(=O)c1cc(OCC)n(Cc2ccnc(OC(F)F)c2)n1 [Compound 136]
100: Barnyardgrass plant response rating (barnyardgrass; [5]) | Plant response rating, Barnyardgrass (barnyardgrass; 13 to 15 days) | Barnyardgrass plant response rating (barnyardgrass; [6]) | Plant response rating, Morningglory (morningglory [2]; [7]) | Soybean plant response rating (soybean; [6]) | Morningglory plant response rating (morningglory [3]; [10]) | Morningglory plant response rating (morningglory [3]; [5]) | Plant response rating, Morningglory (morningglory [3]; 13 to 15 days) | Morningglory plant response rating (morningglory [3]; [6]) | Velvetleaf plant response rating (velvetleaf [4]; [5]) | Plant response rating, Velvetleaf (velvetleaf [4]; 13 to 15 days) | Velvetleaf plant response rating (velvetleaf [4]; [6]) | Plant response rating (scale of 0 to 100 where 0 is no effect and 100 is complete control), Chickweed (chickweed) | Chickweed plant response rating (chickweed) | Plant response rating, Chickweed (chickweed; [7]) | Plant response rating, Chickweed (chickweed; [8]) | Lambsquarters plant response rating (lambsquarters; [6])
80: Plant response rating, Sedge, Umbrella (sedge, umbrella)
45: Soybean plant response rating (soybean; [10]) | Plant response rating, Oat, Wild (oat, wild; [7])
98: Morningglory plant response rating (morningglory [2]) | Lambsquarters plant response rating (lambsquarters; [10]) | Lambsquarters plant response rating (lambsquarters; [5]) | Plant response rating, Lambsquarters (lambsquarters; 13 to 15 days)
95: Plant response rating, Morningglory (morningglory [2]; [8]) | Plant response rating, Soybean (soybean; 13 to 15 days)
90: Wheat plant response rating (wheat; [9]) | Plant response rating (scale of 0 to 100 where 0 is no effect and 100 is complete control), Morningglory (morningglory [2])
5: Plant response rating (scale of 0 to 100 where 0 is no effect and 100 is complete control), Oat, Wild (oat, wild) | Oat, Wild plant response rating (oat, wild) | Plant response rating (scale of 0 to 100 where 0 is no effect and 100 is complete control), Johnsongrass (johnsongrass) | Johnsongrass plant response rating (johnsongrass) | Plant response rating, Johnsongrass (johnsongrass; [8])
30: Plant response rating (scale of 0 to 100 where 0 is no effect and 100 is complete control), Velvetleaf (velvetleaf [1]; Postemergence, 31 g ai/ha, visually evaluated after 13 to 15 days)
10: Plant response rating, Oat, Wild (oat, wild; [8]) | Plant response rating, Johnsongrass (johnsongrass; [7])
85: Plant response rating, Velvetleaf (velvetleaf [1]; [7])
65: Velvetleaf plant response rating (velvetleaf [4]; [10])
55: Velvetleaf plant response rating (velvetleaf [1]; 62 g ai/ha)
75: Barnyardgrass plant response rating (barnyardgrass; 31 g ai/ha, scale 0 to 100 (0 no effect, 100 complete control), 13 to 15 days) | Soybean plant response rating (soybean; [5])
60: Plant response rating, Velvetleaf (velvetleaf [1]; [8]) | Wheat plant response rating (wheat; postemergence, 125 g ai/ha, about 10 days, visual rating on 0 to 100 scale (0 no effect, 100 complete control))

CCCc1cc(C(=O)NC2CC2)nn1Cc1ccnc(OC(F)F)c1 [Compound 205]
55: Velvetleaf plant response rating (velvetleaf [4]; [10])
100: Plant response rating, Barnyardgrass (barnyardgrass; 13 to 15 days) | Barnyardgrass plant response rating (barnyardgrass; [6]) | Plant response rating, Soybean (soybean; 13 to 15 days) | Soybean plant response rating (soybean; [6]) | Morningglory plant response rating (morningglory [3]; [10]) | Morningglory plant response rating (morningglory [3]; [5]) | Plant response rating, Morningglory (morningglory [3]; 13 to 15 days) | Morningglory plant response rating (morningglory [3]; [6]) | Velvetleaf plant response rating (velvetleaf [4]; [5]) | Plant response rating, Velvetleaf (velvetleaf [4]; 13 to 15 days) | Velvetleaf plant response rating (velvetleaf [4]; [6]) | Plant response rating, Sedge, Umbrella (sedge, umbrella) | Plant response rating, Chickweed (chickweed; [7]) | Plant response rating, Lambsquarters (lambsquarters; 13 to 15 days) | Lambsquarters plant response rating (lambsquarters; [6])
95: Plant response rating, Morningglory (morningglory [2]; [7]) | Lambsquarters plant response rating (lambsquarters; [5])
45: Plant response rating, Johnsongrass (johnsongrass; [7])
10: Plant response rating, Oat, Wild (oat, wild; [7]) | Johnsongrass plant response rating (johnsongrass)
98: Barnyardgrass plant response rating (barnyardgrass; [5]) | Plant response rating, Chickweed (chickweed; [8])
20: Plant response rating, Johnsongrass (johnsongrass; [8])
90: Wheat plant response rating (wheat; [9]) | Chickweed plant response rating (chickweed)
85: Barnyardgrass plant response rating (barnyardgrass; [10]) | Soybean plant response rating (soybean; [5]) | Lambsquarters plant response rating (lambsquarters; [10])
40: Plant response rating, Velvetleaf (velvetleaf [1]; [7]) | Velvetleaf plant response rating (velvetleaf [1])
65: Plant response rating (scale of 0 to 100 where 0 is no effect and 100 is complete control), Morningglory (morningglory [2]) | Plant response rating (scale of 0 to 100 where 0 is no effect and 100 is complete control), Chickweed (chickweed)
5: Plant response rating (scale of 0 to 100 where 0 is no effect and 100 is complete control), Oat, Wild (oat, wild) | Oat, Wild plant response rating (oat, wild) | Plant response rating, Oat, Wild (oat, wild; [8]) | Plant response rating (scale of 0 to 100 where 0 is no effect and 100 is complete control), Johnsongrass (johnsongrass)
70: Wheat plant response rating (wheat; Postemergence, 125 g ai/ha, 0 to 100 scale, 0 no effect, 100 complete control) | Morningglory plant response rating (morningglory [2])
80: Plant response rating, Morningglory (morningglory [2]; [8]) | Soybean plant response rating (soybean; [10])
